Data as given in article PMC9894685, “Abscisic acid agonists suitable for optimizing plant water use” (Frontiers in Plant Science, 2023).
Several values for one entry are separate records, joined by “and”; a condition that tells them apart may be missing. Identical values can stand only once. Like-named read-outs stand apart in the source and are kept apart here.

What was measured:
RCAR11-ABI2 = assay: Yeast ABA signal pathway LUC reporter, RCAR11-ABI2; assay type: cell-based, Arabidopsis thaliana
Protocol: The yeast cultivation and the life luciferase assay were performed as described ([Ruschhaupt et al., 2019]). Briefly, the reporter yeast expressing an ABA-dependent luciferase gene (LUC) was transformed with different combinations of ABA signaling components as indicated. Golden gate cloning ([Binder et al., 2014]) was used to construct pYEAST_LII_5‐6_CEN_URA vector with TDH3 promoter and TDH1 terminator (tTDH1), pYEAST_LII_1‐2_CEN_LEU vector with GK1 promoter and tTDH1, and pYEAST_LII_3‐4_CEN_TRP with the GAL1 promoter (pGAL1) and tTDH1 to express RCARs, PP2Cs, and OST1 (SnRK2.6), respectively ([Ruschhaupt et al., 2019]). The expression of ABF2 in yeast relies on a modified pGREG503 vector, in which pGAL1 ([Jansen et al., 2005]) was replaced by the ADH1 promoter.
Colonies of freshly transformed cells were inoculated in 0.5 mL supplemented synthetic dextrose (SD) medium and incubated at 30°C in a gyratory shaker (Thermoshake-THO500, Gerhardt, Königswinter, Germany) at 200 rpm for 16-18 h. After overnight growth, the cells were harvested and washed in SD medium followed by inoculation in SD medium containing 2% galactose for induction of SnRK2 kinases under the control of the GAL1 promoter and supplementation with ligands at indicated concentrations, to an OD600 of 0.2 in flat-bottom 96-well plates (CytoOne, Starlab, Hamburg, Germany). Yeast cultures were incubated at 30°C and 200 rpm for 16-18 h before determination of LUC activity and cell density. Light emission of yeasts was detected in a HIDEX plate luminometer (HIDEX, Turku, Finland) after injection of 100 µL freshly prepared luciferin substrate (1 mM D-luciferin, Promega) provided in 100 mM citric acid, pH 3 ([Leskinen et al., 2003]) for 5 s and was corrected for background. The LUC activity was normalized to the cell density (OD600) measured in 96-well flat plates (Sarstedt, Nümbrecht, Germany). LUC activity is given as the ratio of light emission to OD600 in counts per second.

RCAR1-ABI2 = molecular target: T1, RCAR1-ABI2 (Arabidopsis thaliana, UniProt O04719+Q84MC7); assay: In vitro phosphatase assay, ABI2 with RCAR1; assay type: biochemical
T1 construct: 6xHis (N); made in house; host or cells: Escherichia coli BL21
T1 sequence (Q84MC7 1-187): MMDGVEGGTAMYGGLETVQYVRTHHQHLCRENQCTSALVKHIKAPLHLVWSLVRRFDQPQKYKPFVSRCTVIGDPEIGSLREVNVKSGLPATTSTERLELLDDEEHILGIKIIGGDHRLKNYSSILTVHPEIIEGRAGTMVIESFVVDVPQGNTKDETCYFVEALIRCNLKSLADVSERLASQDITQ
T1 sequence (O04719 1-423): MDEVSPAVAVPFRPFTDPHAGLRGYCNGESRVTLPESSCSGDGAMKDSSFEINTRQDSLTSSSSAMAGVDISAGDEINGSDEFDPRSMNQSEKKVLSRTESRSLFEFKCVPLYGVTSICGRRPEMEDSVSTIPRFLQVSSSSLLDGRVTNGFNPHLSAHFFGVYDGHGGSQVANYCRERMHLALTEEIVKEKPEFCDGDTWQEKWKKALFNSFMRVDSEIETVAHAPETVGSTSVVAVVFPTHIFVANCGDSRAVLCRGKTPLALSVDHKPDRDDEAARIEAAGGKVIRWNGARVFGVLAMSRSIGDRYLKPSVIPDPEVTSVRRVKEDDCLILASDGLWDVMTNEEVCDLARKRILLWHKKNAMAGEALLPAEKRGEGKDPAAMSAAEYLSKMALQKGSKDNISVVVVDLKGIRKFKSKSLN
Protocol: (§1) Expression, purification, and analysis of RCAR and PP2C proteins were performed essentially as described ([Ruschhaupt et al., 2019]). Briefly, the ABA receptors RCAR1, RACR8, and RCAR11 were expressed with an aminoterminal histidine tag using the pSEVA431_LII_6xHIS::RCAR1/RCAR8/RCAR11. ABA coreceptors were expressed as histidine-tagged fusions with the maltose-binding protein using the pSEVA431_LII_6xHIS::MBP::ABI2/HAB1. All constructs were transformed and expressed in Escherichia coli strain BL21 and purified to homogeneity according to supplier’s instruction (GE Healthcare, Chicago, USA). The receptor assay was performed with 100 nM PP2C and a two-fold molar excess of RCAR. Values are means ± SD of three replicates. […] The maximum inhibition was set to 100% in the figures. The phosphatase activity was measured using 4-methylumbelliferyl-phosphate as a substrate ([Meinhard and Grill, 2001]). The increase in fluorescence was recorded over 25 min with excitation and emission wavelengths at 360 and 460 nm, respectively, using a Synergy 2 plate reader (Bio-Tec, Winooski, USA).

Arabidopsis plants [1] = assay: Foliar administration and thermal imaging of leaf temperature (transpiration), Arabidopsis; assay type: in vivo, Arabidopsis thaliana
Protocol: (§2) Thermal imaging was carried out as described ([Yang et al., 2016]). An assessment of the efficacy of ABA and CCPs was conducted by using 35-day-old Arabidopsis and 30-day-old wheat plants. Stock solutions (10 mM) of CCPs and ABA dissolved in dimethyl sulfoxide (DMSO) were diluted to the respective ligand concentrations (10, 30, 100 µM) in water containing 0.01% (v/v) Tween 20. Aqueous Tween 20 solutions supplemented with 0.1%, 0.3%, and 1% DMSO served for mock treatments. The solutions were sprayed onto the leaf surface until the run-off of droplets. One day after application (unless otherwise indicated), thermal imaging was conducted using the InfraTec instrument (IR-TCM 384, InfraTec, Dresden, Germany). The leaf temperature of Arabidopsis was determined as the average temperature of all leaves. The leaf temperature of wheat was determined as described ([Yang et al., 2019]).

Arabidopsis plants [2] = assay: Progressive drought experiment: growth, water consumption, WUE; assay type: in vivo, Arabidopsis thaliana; conditions: 30 µM
Protocol: The progressive drought experiment was performed as described ([Yang et al., 2016]). Briefly, 18-day-old Arabidopsis plantlets grown under well-watered and short-day conditions (8 h light with 150 µmol m^-2 s^-1 PAR, 22°C, 50% relative humidity, and 16 h dark with 17°C, 60% relative humidity) were transferred to 0.2 L pots loaded with water-saturated soil (33.4 ± 0.4 g dry soil with 148 ± 2 g water). At the onset of the progressive drought (day 0), water was withheld, and a sealed soil surface prevented evaporation. A slowly increasing water deficit was achieved by transpirational water loss from plants. The progressive drought experiment lasted for eight weeks until mock-treated plants had consumed all the plant-usable water. […] For measuring growth and water consumption, leaf rosettes were regularly photographed, and the pots were weighed. The projected leaf area of Arabidopsis rosettes was analyzed by using Photoshop Elements software (Adobe, San Jose, USA). The consumed water was calculated as the difference in pot weight between day 0 and the designated days. The retained water was expressed as the difference between the pot weight at the end of the drought (day 57) and the weight of the loaded dry soil. Above-ground material was harvested at day 57, and the biomass was determined after drying the material for three days at 60°C to achieve constant weight. WUE was calculated as the ratio of above-ground dry biomass to consumed water. The data for the mock- and ABA-treated plants in the progressive drought experiment were already published ([Yang et al., 2019]).

wheat plants = assay: Foliar administration and thermal imaging of leaf temperature, wheat; assay type: in vivo, Triticum aestivum
Protocol: as §2

ABI2 with RCARs = assay: In vitro receptor assay, ABI2 in the presence of RCAR1, RCAR8 or RCAR11; assay type: biochemical, Arabidopsis thaliana
Protocol: as §1

HAB1 with RCARs = assay: In vitro receptor assay, HAB1 in the presence of RCARs; assay type: biochemical, Arabidopsis thaliana; conditions: HAB1, in the presence of RCARs and saturating ABA levels (1 mM)
Protocol: as §1

Arabidopsis plants [3] = test system: Arabidopsis plants; set-up: method as in Yang et al., 2019; conditions: ref Yang et al., 2019, cited from earlier work
[4] = test system: Arabidopsis aba2-1 protoplasts; assay: Transient ABA response in Arabidopsis protoplasts (pRD29B::LUC, RCAR11 and ABI2 effectors); assay type: cell-based, Arabidopsis thaliana; conditions: aba2-1 protoplasts, 18 h ligand exposure
Protocol: Preparation of Arabidopsis protoplasts, transfection of the effector DNA, and analysis of LUC activity were performed as described ([Tischer et al., 2017]). In essence, 10^5 mesophyll protoplasts from leaves of the ABA deficient mutant aba2-1 ([Schwartz et al., 1997]) were transfected with 4 µg DNA of the pRD29B::LUC construct as an ABA-responsive reporter and 3 µg of p35S::GUS (β-glucuronidase reporter gene) expression cassette as an internal control for normalization. In addition, 3 µg p35S::RCAR11 or the empty vector with the same expression cassette were co-expressed with 0.1 µg p35S::ABI2 effector constructs ([Tischer et al., 2017]), and the ligand-dependent induction of ABA-responsive reporter expression were assessed after incubation at 22°C. The expression of LUC and GUS was determined 18 h after transfection and ligand administration.

pig liver esterase = assay: De-esterification of CCPs by pig liver esterase (HPLC); assay type: in vitro ADME; conditions: 4 nkat pig liver esterase, 2 h, 25°C
Text: (S)-ABA was purchased from CHEMOS (www.chemos.de). Other chemicals were of the highest purity available and obtained from SigmaAldrich (www.sigmaaldrich.com), ROTH (www.carlroth.com), and J. T. Baker (http://www.avantormaterials.com) unless otherwise indicated. The Arabidopsis (Arabidopsis thaliana) accession Col-0 was received from the Nottingham Arabidopsis Stock Center. The elite wheat (Triticum aestivum) cultivar, Elixer, was provided from Bayerische Landesanstalt für Landwirtschaft, Freising. ABA and CCPs were dissolved in DMSO and diluted to designated concentrations before administration. For de-esterification, 0.2 µmol CCP was treated with 4 nkat pig liver esterase (Sigma-Aldrich, Burlington, MA, USA) for 2 h at 25°C according to supplier’s instruction.

Arabidopsis = test system: Arabidopsis; set-up: method as in Vaidya et al., 2019; conditions: 50 µM; ref Vaidya et al., 2019; cited from earlier work
tomato = test system: tomato; set-up: method as in Vaidya et al., 2019; conditions: ref Vaidya et al., 2019; cited from earlier work
wheat = test system: wheat; set-up: method as in Vaidya et al., 2019; conditions: ref Vaidya et al., 2019; cited from earlier work

CC1=CC(=O)CC(C)(C)[C@@]1(O)/C=C/C(C)=C\C(=O)O [ABA, abscisic acid]
LUC reporter induction compared to mock-treated cells (RCAR11-ABI2; 30 µM exogenous ligand, 16 h exposure): approximately eightfold
IC50 (RCAR1-ABI2): 100 nM
Time until leaf temperature reached starting values (Arabidopsis plants [1]; 10 µM): eight
Time of optimum of inhibited transpiration (Arabidopsis plants [1]; after single administration): between two and four days after administration
Daily growth reduction (Arabidopsis plants [2]): 1%
Higher leaf temperature compared to the control (wheat plants; 0.1 mM, one day after administration, averaged from six experiments): approximately 0.8 °C
Leaf temperature increase at 100 μM ABA (wheat plants; 24 h, separate experiments run in parallel to the CCPs): 0.6 ± 0.18 °C and 0.9 ± 0.19 °C and 0.6 ± 0.12 °C and 0.9 ± 0.03 °C and 0.9 ± 0.10 °C and 0.9 ± 0.07 °C
Residual phosphatase activity (ABI2 with RCARs; ABI2, in the presence of RCARs and saturating ABA levels (1 mM)): 10%
Residual phosphatase activity (HAB1 with RCARs): 4%
Growth of leaf rosettes compared to mock (Arabidopsis plants [3]; 10 µM, for six weeks): indistinguishable
WUE increase (Arabidopsis plants [3]; 10 µM): 14%
Soil water retained at the end of the drought, of initial soil water (Arabidopsis plants [3]; 30 µM, day 57): about 25%
Reduced projected leaf area (Arabidopsis plants [3]; 30 µM, within 19 days): 20%
Growth of leaf rosettes compared to mock (Arabidopsis plants [3]; 30 µM): growth reduction
WUE increase (Arabidopsis plants [3]; 30 µM): 26%

CCCOC(=O)/C=C(\C=C\C(O)(C(C)C)C1(C#N)CC1)CC (stereo not drawn) [CCP3]
Reporter activation after pig liver esterase treatment (RCAR11-ABI2; 30 µM, PLE-treated prior to yeast exposure): comparable to esterase-treated CCP2 and ABA
Induction of ABA signaling compared to ABA [4]: not observed
Leaf temperature increase, activity compared to ABA (Arabidopsis plants [1]; 10, 30, 100 µM, one day after application): almost as active as the non-esterified CCP2
Activity and persistence of minimized transpiration compared to ABA (Arabidopsis plants [1]; single application 100 µM, recorded for 19 days): more active and persistent than ABA
Growth reduction compared to the control (Arabidopsis plants [2]): about 60%
Leaf temperature increase (Arabidopsis plants [2]; 24 h after the first application): highest temperature increase
Reduction in biomass accumulation compared to the control (Arabidopsis plants [2]; day 57): 60%
Soil water retained at the end of the drought, of initial soil water (Arabidopsis plants [2]; day 57): approximately 75%
Growth of leaf rosettes compared to mock (Arabidopsis plants [2]; three administrations): growth reduction
Leaf temperature increase, activity compared to ABA (wheat plants; 100 μM, 24 h after administration): higher activity than ABA
Degree of ester-bond cleavage by PLE (conversion into free acid) (pig liver esterase): complete de-esterification
Activity in the in vitro receptor assay after esterase treatment (ABI2 with RCARs; pig liver esterase-treated): comparable activity as CCP2

N#Cc1c(C2CC2)cc(CC(=O)NC2(C(=O)O)CCCCC2)cc1C1CC1 [Opabactin]
Efficacy in elevating leaf temperature (Arabidopsis): ABA-comparable efficacy
Efficiency in controlling transpiration compared to ABA (tomato): more efficient than ABA
Activity in controlling transpiration compared to ABA (wheat): comparable activity
